# Measured values published in paper PMC7109127 (British Journal of Cancer, 2020).
# Values joined by “and” are separate entries in the source; they are usually repeats but may differ in a detail not shown here. Identical values can stand only once. Like-named read-outs stand apart in the source and are kept apart here.
# Key:
# [1] = system: PDGFRβ; experiment: in vitro inhibition of PDGFRβ phosphorylation
# [2] = system: c-kit; settings: in vitro; read-out: half-maximal inhibitory concentration, c-kit phosphorylation; cited from earlier work
# [3] = system: sVEGFR-2; experiment: phase 1b/2 study, pharmacodynamics: plasma sVEGFR-2 by ELISA; assay type: in vivo, Human; settings: for sVEGFR-2, median percent decrease from baseline: day 15
# Experimental: For sVEGFR-2, plasma EDTA samples (220 μL) were analysed in duplicate using a commercially available enzyme-linked immunosorbent assay (Quantikine® ELISA Human VEGFR-2/KDR immunoassay, R&D Systems® Inc., Minneapolis, MN) that was validated according to the FDA guidance. A Tomtec Quadra 4 (Tomtec Inc., Hamden, CT) liquid handling robot was used to transfer all solutions to the 96-well plate to eliminate time-dependent variability associated with manual pipetting. After the addition of the Stop Solution in the final step, the absorbance of each well was measured at 450 and 540 nm on a Synergy HT plate reader (BioTek Instruments, Winooski, VT). The readings at 540 nm were subtracted from the absorbance readings at 450 nm to correct for any optical imperfections in the 96-well plate. Sample concentrations were back-calculated against calibration curves (80.0–5000 pg/mL) that were generated based on a 4-parameter fit of absorbance vs. nominal concentrations (pg/mL) using the Gen 5 software (BioTek Instruments).
# [4] = TIVO-1; cited from earlier work
# [5] = cited from earlier work
# [6] = phase 1b/2 study, safety, DLT and MTD/RP2D (CTCAE v4.0)
# Experimental: The RP2D was defined as the MTD.
# (§1) The treatment schedule was modified as there was concern on tolerability of longer dosing in patients with underlying cirrhosis. […] Study treatment was continued until disease progression or unacceptable toxicity.
# (§2) Safety assessments were done at baseline, on cycle 1 days 1 and 15, and on day 1 of each cycle thereafter. Tumour assessments were performed by computed tomography or magnetic resonance imaging at baseline and every 8 weeks thereafter. Confirmatory imaging was performed within 6 weeks in patients with complete response or partial response. AEs were assessed using the National Cancer Institute Common Terminology Criteria for Adverse Events (CTCAE) v4.0. Blood sample collection for pharmacokinetic (PK) and pharmacodynamic (PD) analysis was performed on cycle 1 days 1 and 15 pre-dose as well as 2 and 4 h post dose.
# [7] = system: SK-HEP-1 cells; settings: cited from earlier work
# [8] = system: sVEGFR-2; settings: by day 27; 1 mg daily cohort; cited from earlier work
# [9] = background statement; cited from earlier work
# [10] = in vivo
# Experimental: The RP2D was defined as the MTD.
# as §1, §2
# [11] = phase 1b/2 study, plasma pharmacokinetics (LC-MS/MS, NCA and nonlinear mixed-effects model); assay type: in vivo, patients; design: AUC0-4: concentration or dose not given beside the values
# Experimental: LC-MS/MS analysis of the extracted samples was performed using an Agilent Technologies (Santa Clara, California) HPLC system and the API 3000 mass spectrometer (Sciex, Framingham, MA) with electrospray ionisation. Chromatographic separation was achieved using a biphasic gradient over a Cortecs C18 column (2.1 × 50 mm^2, Waters Corporation, Milford, MA) preceded by a Cortecs C18+VanGuard Cartridge (2.1 × 5 mm^2, Waters Corporation). Analytes were detected using multiple reaction monitoring in positive ion mode.
# A nonlinear mixed-effects model was developed using first-order conditional estimation with interaction (FOCE-I) with the Laplacian option selected. This estimator was chosen as it is more suitable to modelling sparse data sets. One- and two-compartment structural models were tested with first-order absorption, both with and without a separate bioavailability term. Estimates for inter-subject variability were tested on all PK parameters using exponential relationships and were included where they could be confidently estimated. Inter-occasion variability between cycle 1 day 1 and cycle 1 day 15 was also tested. The residual unexplained variability in drug concentrations was tested with additive, proportional, and combined additive and proportional error models. Model selection was performed on the basis of the negative log-likelihood objective function (OFV) and standard goodness-of-fit and diagnostic plots. The final model was composed of one disposition compartment with first-order absorption and elimination. […] To facilitate comparison with previous studies, AUCs from 0 to 4 and 0 to 24 h were calculated from each individual’s model-predicted PK profile. Similarly, the maximum concentration (Cmax) and time of maximum concentration in a given dosing interval (tmax) were estimated both from the original data and the model prediction. The analysis was performed with NONMEM 7.4.1 (ICON plc, Dublin, Ireland), integrated with PSN 4.6.0 (psn.sourceforge.net) and using the Pirana 2.9.2 interface (pirana-software.com).
# [12] = system: CYP3A4; settings: background statement; cited from earlier work
# [13] = all solid tumours, 1 mg dose level
# [14] = individual patient estimate (Subject ID in c0)
# [15] = individual patient, Day 1, NCA and Observation
# [16] = individual patient, Day 15, NCA and Observation
smiles,measurement,setting,value
COc1cc2nccc(Oc3ccc(NC(=O)Nc4cc(C)on4)c(Cl)c3)c2cc1OC [tivozanib],"activity against PDGFRβ, times higher compared to lenvatinib",[1],197 times
same,"activity against PDGFRβ, times higher compared to sorafenib",[1],46 times
same,IC50,[2],1.63 nM
same,"sVEGFR-2, median pre-dose level",[3]; cycle 1 day 1,8.64 µg/L
same,"sVEGFR-2, median pre-dose level",[3]; cycle 1 day 15,5.37 µg/L
same,"sVEGFR-2, median percent decrease from baseline",[3]; PFS responders,32.4%
same,"sVEGFR-2, median percent decrease from baseline",[3]; PR by RECIST 1.1,30.9%
same,"sVEGFR-2, median percent decrease from baseline",[3]; SD by RECIST 1.1,40.5%
same,"sVEGFR-2, median percent decrease from baseline",[3]; all patients,31.1%
same,"sVEGFR-2, median percent decrease from baseline",[3]; not PFS responders,30.1%
same,"sVEGFR-2, median percent decrease from baseline",[3]; progressive disease (PD) by RECIST 1.1,27.4%
same,diarrhoea incidence,[4],23%
same,hypertension incidence,[4],44%
same,palmar–plantar erythrodysesthesia incidence,[4],14%
same,"Dry skin, any grade",[5]; [13],28%
same,"Fatigue, any grade",[5]; [13],55%
same,"Fatigue, grade 3–4",[5]; [13],6%
same,"Hypertension, any grade",[5]; [13],39%
same,"Hypertension, grade 3–4",[5]; [13],28%
same,"Palmar–plantar erythrodysesthesia, any grade",[5]; [13],22%
same,maximum-tolerated dose (MTD) and RP2D,"[5]; once daily, 4 weeks on–2 weeks off, advanced refractory solid malignancies",1.5 mg
same,deaths due to toxicity,[6]; 27 patients,No deaths due to toxicity
same,MTD/RP2D,"[6]; per os once daily, 21 days on–7 days off, advanced HCC",1 mg
same,viral loads,[6]; two HBV-positive and three HCV-positive patients,remained stable
same,tumour growth inhibition,[7]; daily oral 0.2 mg/kg for 2 weeks,~60%
same,tumour inhibition,[7]; daily oral 1 mg/kg,~90%
same,sVEGFR-2 decrease from baseline,[8],28%
same,liver toxicities or tissue accumulation,[9],no associated liver toxicities or tissue accumulation
same,"Decreased appetite, grade 3 and 4",[10]; human,3.7%
same,"Diarrhoea, grade 3–4",[10]; human,0%
same,"Dysphonia, grade 3 and 4",[10]; human,0%
same,"Fatigue, grade 3–4",[10]; human,26%
same,"Hypertension, grade 3 and 4",[10]; human,11%
same,"Increased bilirubin, grade 3 and 4",[10]; human,7.4%
same,"Nausea, grade 3 and 4",[10]; human,0%
same,"PPEDS (palmar–plantar erythrodysesthesia syndrome), Total",[10]; human,11%
same,"PPEDS, Total",[10]; human,3 n
same,"Palmar–plantar erythrodysesthesia, grade 3 and 4",[10]; human,3.7%
same,"Stomatitis, grade 3 and 4",[10]; human,0%
same,"Vomiting, grade 3 and 4",[10]; human,0%
same,dose reductions for toxicity,[10],six
same,permanently discontinued from study treatment for toxicity,[10],four
same,tolerability,[10],well tolerated
same,"tmax, Median","[11]; Day 1, 1 mg, NCA and observation",4.067 h
same,AUC(0-t),"[11]; human, plasma, oral, 1 mg, Day 1, 1 mg, Model prediction, read-out: AUC0–4, Mean",14.3 ng·h/mL
same,AUC(0-t),"[11]; human, plasma, oral, 1 mg, Day 1, 1 mg, Model prediction, read-out: AUC0–24, Mean",176 ng·h/mL
same,Cmax,"[11]; human, plasma, oral, 1 mg, Day 1, 1 mg, Model prediction, read-out: Cmax, Mean",8.75 ng/mL
same,tmax,"[11]; human, plasma, oral, 1 mg, Day 1, 1 mg, Model prediction, read-out: tmax, Median",13.3 h
same,AUC(0-t),"[11]; human, plasma, oral, 1 mg, Day 1, 1 mg, NCA and observation, read-out: AUC0–4, Mean",14.2 ng·h/mL
same,Cmax,"[11]; human, plasma, oral, 1 mg, Day 1, 1 mg, NCA and observation, read-out: Cmax, Mean",6.54 ng/mL
same,tmax,"[11]; human, plasma, oral, 1 mg, Day 1, 1 mg, NCA and observation, read-out: tmax, Median",4.07 h
same,AUC(0-t),"[11]; human, plasma, oral, 1 mg, Day 15, 1 mg, Model prediction, read-out: AUC0–4, Mean",190 ng·h/mL
same,AUC(0-t),"[11]; human, plasma, oral, 1 mg, Day 15, 1 mg, Model prediction, read-out: AUC0–24, Mean",1100 ng·h/mL
same,Cmax,"[11]; human, plasma, oral, 1 mg, Day 15, 1 mg, Model prediction, read-out: Cmax, Mean",50.7 ng/mL
same,tmax,"[11]; human, plasma, oral, 1 mg, Day 15, 1 mg, Model prediction, read-out: tmax, Median",7 h
same,AUC(0-t),"[11]; human, plasma, oral, 1 mg, Day 15, 1 mg, NCA and observation, read-out: AUC0–4, Mean",184 ng·h/mL
same,Cmax,"[11]; human, plasma, oral, 1 mg, Day 15, 1 mg, NCA and observation, read-out: Cmax, Mean",58.7 ng/mL
same,tmax,"[11]; human, plasma, oral, 1 mg, Day 15, 1 mg, NCA and observation, read-out: tmax, Median",2.05 h
same,Vd/F,"[11]; human, plasma, oral, 1 mg, typical population value, read-out: Apparent Volume of Distribution (V/F)",105 L
same,Apparent systemic clearance,[11]; [14],0.99 L/h and 0.81 L/h and 0.80 L/h
same,Apparent volume of distribution,[11]; [14],159 L
same,AUC0-4,[11]; [15],20.2 ng·h/mL and 21.6 ng·h/mL and 35.9 ng·h/mL and 27.7 ng·h/mL and 1.5 ng·h/mL and 11.0 ng·h/mL and 7.0 ng·h/mL and 16.2 ng·h/mL and 30.3 ng·h/mL and 18.0 ng·h/mL and 18.1 ng·h/mL and 10.6 ng·h/mL and 10.7 ng·h/mL and 16.6 ng·h/mL and 13.8 ng·h/mL and 6.8 ng·h/mL and 15.5 ng·h/mL and 10.3 ng·h/mL and 3.6 ng·h/mL and 0.6 ng·h/mL and 3.5 ng·h/mL and 21.5 ng·h/mL and 18.8 ng·h/mL and 8.9 ng·h/mL and 4.7 ng·h/mL and 24.5 ng·h/mL and 19.4 ng·h/mL
same,Cmax,[11]; [15],8.57 ng/mL and 13.6 ng/mL and 16.3 ng/mL and 9.53 ng/mL and 1.42 ng/mL and 3.62 ng/mL and 2.78 ng/mL and 6.93 ng/mL and 11.8 ng/mL and 8.23 ng/mL and 6.82 ng/mL and 5.84 ng/mL and 4.7 ng/mL and 7.56 ng/mL and 4.71 ng/mL and 3.4 ng/mL and 5.18 ng/mL and 8.48 ng/mL and 1.4 ng/mL and 0.616 ng/mL and 2 ng/mL and 7.29 ng/mL and 7.79 ng/mL and 5.82 ng/mL and 2.97 ng/mL and 8.63 ng/mL and 10.6 ng/mL
same,tmax,[11]; [15],4.067 h and 4.417 h and 4.05 h and 2.167 h and 4.083 h and 4.183 h and 4.017 h and 4.2 h and 4.033 h and 2.067 h and 4.133 h and 5.25 h and 7.667 h and 2.1 h and 4.35 h and 4.167 h
same,AUC0-4,[11]; [16],333.0 ng·h/mL and 558.5 ng·h/mL and 360.8 ng·h/mL and 205.7 ng·h/mL and 154.1 ng·h/mL and 177.6 ng·h/mL and 112.9 ng·h/mL and 103.0 ng·h/mL and 261.2 ng·h/mL and 156.5 ng·h/mL and 150.0 ng·h/mL and 134.8 ng·h/mL and 134.3 ng·h/mL and 148.1 ng·h/mL and 239.7 ng·h/mL and 175.8 ng·h/mL and 163.5 ng·h/mL and 154.7 ng·h/mL and 185.6 ng·h/mL and 106.3 ng·h/mL
same,Cmax,[11]; [16],89.5 ng/mL and 201 ng/mL and 104 ng/mL and 58.8 ng/mL and 43.1 ng/mL and 47 ng/mL and 31.1 ng/mL and 32.3 ng/mL and 70.9 ng/mL and 61.2 ng/mL and 49.9 ng/mL and 33.3 ng/mL and 37.8 ng/mL and 69.4 ng/mL and 53.6 ng/mL and 43.4 ng/mL and 40.3 ng/mL and 38.7 ng/mL and 57.4 ng/mL and 47.3 ng/mL and 30.8 ng/mL
same,tmax,[11]; [16],2.06 h and 2.01 h and 2.1 h and 2.03 h and 2.07 h and 2.12 h and 2 h and 2.02 h and 4.12 h and 4.09 h and 3.91 h
same,Inter-individual variability (IIV) in CL/F,[11]; population model,42.4 %CV
same,Inter-individual variability (IIV) in V/F,[11]; population model,45.8 %CV
same,Inter-individual variability (IIV) in ka/F,[11]; population model,57.5 %CV
same,Apparent Systemic Clearance (CL/F),[11]; typical population value,0.803 L/h
same,Apparent first-order absorption rate constant (ka/F),[11]; typical population value,0.239 h⁻¹
same,interaction with CYP3A4 inhibitors,[12],no interaction
